Data taken from patent publication US20210230123A1, “INHIBITORS OF ALPHA-AMINO-BETA-CARBOXYMUCONIC ACID SEMIALDEHYDE DECARBOXYLASE” (TES Pharma S.r.l., priority 2016, published 2021).

molecular target: T1, hACMSD (Homo sapiens, UniProt Q8TDX5); assay: Determination of ACMSD1 inhibition (spectrophotometrical in vitro assay); assay type: biochemical; conditions: HAA concentration of 10 μM, 25° C.
T1 construct: made in house; host or cells: Pichia pastoris
Method: The activity of compounds as inhibitors of ACMSD1 is determined in a spectrophotometrical in vitro assay. The pre-assay mixture is incubated and a compound of Formula (I), Formula (Ia), Formula (Ib), Formula (Ic), Formula (Id), Formula (Ie), Formula (If), Formula (Ig), Formula (Ih), Formula (Ii), Formula (Ij), Formula (II), Formula (IIa), Formula (IIb), Formula (IIc), Formula (IId), Formula (IIe), Formula (IIf), Formula (IIg), Formula (IIh), Formula (IIi), Formula (IIj), Formula (IIk), and Formula (IIl), or a pharmaceutically acceptable salt thereof, and ACMSD1 solution is then added. The effect of ACMS concentration on the enzyme activity is investigated by varying 3-hydroxyanthranilic acid (30H-HA) concentration in the pre-assay mixture. Kinetic parameters are calculated from the initial velocity data using a Lineweaver-Burk plot.
The inhibition activity of ACMSD1 of compounds disclosed herein was determined by measuring the conversion of 30H-Anthranilic Acid into product (i.e., ACMS) in a spectrophotometrical in vitro assay.
The pre-assay mixture consisting of 3-hydroxyanthranilic acid (30H-HA), 3-hydroxyanthranilic acid, 3,4-diOxygenase (HAO), and a dialyzed crude extract of E. coli BL21 (DE3) cells expressing the recombinant enzyme, was incubated at 25° C. with monitoring of the increase in absorbance at 360 nm due to the formation of ACMS from 30H-HA. After the reaction was completed within 2 mins, an aliquot of ACMSD1 solution (prepared and purified from Pichia Pastoris overexpressing the recombinant enzyme) was added, and the decrease in absorbance at 360 nm was followed at 15 second intervals. The effect of ACMS concentration on the enzyme activity was investigated by varying 30H-HA concentration from 2 to 20 µM. Kinetic parameters were calculated from the initial velocity data by using the Lineweaver-Burk plot.
The rate of the decrease in absorbance caused by ACMSD1 was calculated by subtracting that of the control reaction mixture without ACMSD from that described above. One unit of ACMSD activity was indicated as the amount of enzyme that converts 1 mmol of ACMS per minute at 25° C. The absence or a reduction of ACMSD1 activity (e.g., by using ACMSD inhibitors) results in a slow ACMS-spontaneous degradation (i.e., cyclization to form quinolic acid).
The enzymatic activity was determined at a HAA concentration of 10 μM in the presence of the compounds in Table 1 below. The compounds were tested at the concentration of about […] and 10 μM and the IC50 was calculated for compounds showing inhibitory activity higher than 500.

T1 sequence (Q8TDX5 whole entry): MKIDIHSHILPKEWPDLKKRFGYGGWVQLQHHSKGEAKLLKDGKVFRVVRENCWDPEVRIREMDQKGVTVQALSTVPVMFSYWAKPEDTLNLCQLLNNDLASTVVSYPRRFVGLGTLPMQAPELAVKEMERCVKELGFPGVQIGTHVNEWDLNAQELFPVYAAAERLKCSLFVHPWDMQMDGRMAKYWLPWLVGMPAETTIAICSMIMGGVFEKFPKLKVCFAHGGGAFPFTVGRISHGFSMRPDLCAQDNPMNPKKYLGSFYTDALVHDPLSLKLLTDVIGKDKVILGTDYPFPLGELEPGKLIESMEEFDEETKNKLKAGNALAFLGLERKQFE

IC50 | SMILES
100 to 1000 nM | COc1cccc(/C=C/c2nc(SC)[nH]c(=O)c2C#N)c1OCC(=O)O [I-15, (E)-2-(2-(2-(5-cyano-2-(methylthio)-6-oxo-1,6-dihydropyrimidin-4-yl)vinyl)-6-methoxyphenoxy)acetic acid]
100 to 1000 nM | COc1cccc(/C=C/c2[nH]c(=S)[nH]c(=O)c2C#N)c1OC(C)C(=O)O (stereo not shown) [I-9, (E)-2-(2-(2-(5-cyano-6-oxo-2-thioxo-1,2,3,6-tetrahydropyrimidin-4-yl)vinyl)-6-methoxyphenoxy)propanoic acid]
1000 to 2000 nM | N#Cc1c(/C=C/c2cccc(OCC(=O)O)c2)[nH]c(=O)[nH]c1=O [I-3, (E)-2-(3-(2-(5-cyano-2,6-dioxo-1,2,3,6-tetrahydropyrimidin-4-yl)vinyl)phenoxy)acetic acid]
100 to 1000 nM | COc1cccc(/C=C/c2[nH]c(=S)[nH]c(=O)c2C#N)c1 [I-10, (E)-6-(3-methoxystyryl)-4-oxo-2-thioxo-1,2,3,4-tetrahydropyrimidine-5-carbonitrile]
100 to 1000 nM | COc1cccc(/C=C/c2[nH]c(=S)[nH]c(=O)c2C#N)c1OC(C)(C)C(=O)O [I-8, (E)-2-(2-(2-(5-cyano-6-oxo-2-thioxo-1,2,3,6-tetrahydropyrimidin-4-yl)vinyl)-6-methoxyphenoxy)-2-methylpropanoic acid]
100 to 1000 nM | N#Cc1c(/C=C/c2ccccc2OCC(=O)O)[nH]c(=S)[nH]c1=O [I-6, (E)-2-(2-(2-(5-cyano-6-oxo-2-thioxo-1,2,3,6-tetrahydropyrimidin-4-yl)vinyl)phenoxy)acetic acid]
100 to 1000 nM | N#Cc1c(-c2cccc(-c3cccc(C(=O)O)c3)c2)[nH]c(=S)[nH]c1=O [I-16, 3′-(5-cyano-6-oxo-2-thioxo-1,2,3,6-tetrahydropyrimidin-4-yl)-[1,1′-biphenyl]-3-carboxylic acid]
100 to 1000 nM | COc1cccc(/C=C/c2[nH]c(=O)[nH]c(=O)c2C#N)c1OCC(=O)O [I-2, (E)-2-(2-(2-(5-cyano-2,6-dioxo-1,2,3,6-tetrahydropyrimidin-4-yl)vinyl)-6-methoxyphenoxy)acetic acid]
1000 to 2000 nM | CCOc1cc(/C=C/c2[nH]c(=O)[nH]c(=O)c2[N+](=O)[O-])ccc1OCC(=O)O [I-17, (E)-2-(2-ethoxy-4-(2-(5-nitro-2,6-dioxo-1,2,3,6-tetrahydropyrimidin-4-yl)vinyl)henoxy)acetic acid]
100 to 1000 nM | N#Cc1c(/C=C/c2ccccc2-c2cc(F)c(O)c(F)c2)[nH]c(=O)[nH]c1=O [I-4, (E)-6-(2-(3′,5′-difluoro-4′-hydroxy-[1,1′-biphenyl]-2-yl)vinyl)-2,4-dioxo-1,2,3,4-tetrahydropyrimidine-5-carbonitrile]
